Experimental data as given in patent US7259155B2, “Phosphonic diester derivatives” (Otsuka Pharmaceutical Factory, Inc., priority 2004, dated 2007).

Molecular target: T1, ACAT-1 (Homo sapiens, UniProt P35610)
T1 construct: To 2.6 ml of broken homogenate having a protein concentration of 2.5 mg/ml was added 0.65 ml of 5×DOC/PC; endogenous in cells; host or cells: SW-13 cells (human adrenal cortical adenocarcinoma); broken homogenate solubilised with deoxycholate/PC and reconstituted into cholesterol/PC vesicles
T1 sequence (P35610 1-550): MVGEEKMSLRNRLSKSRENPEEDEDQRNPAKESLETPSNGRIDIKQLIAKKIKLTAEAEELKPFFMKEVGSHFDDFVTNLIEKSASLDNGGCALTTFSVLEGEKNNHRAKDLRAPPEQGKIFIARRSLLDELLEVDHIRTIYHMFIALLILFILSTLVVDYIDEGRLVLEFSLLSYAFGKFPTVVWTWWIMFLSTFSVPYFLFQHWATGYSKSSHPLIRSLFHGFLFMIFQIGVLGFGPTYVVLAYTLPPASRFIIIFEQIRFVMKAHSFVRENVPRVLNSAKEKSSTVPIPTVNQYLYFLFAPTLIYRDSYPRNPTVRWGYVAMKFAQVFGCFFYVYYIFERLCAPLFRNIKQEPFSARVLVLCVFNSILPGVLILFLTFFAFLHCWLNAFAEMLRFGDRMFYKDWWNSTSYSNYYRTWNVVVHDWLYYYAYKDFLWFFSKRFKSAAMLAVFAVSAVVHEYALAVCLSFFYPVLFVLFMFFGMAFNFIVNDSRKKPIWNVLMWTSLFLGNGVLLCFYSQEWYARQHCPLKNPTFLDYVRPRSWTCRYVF
Assay: ACAT-1 Inhibitory Action Test 1 (reconstituted vesicle assay, enzyme solution from SW-13 cell broken homogenate)
Type: biochemical
Details: test substance 1×10^−3 mol/l in DMSO, 2.5 μl added to 200 μl enzyme solution + 50 μl substrate solution; 37° C., 30 minutes; decrease in total cholesterol ester vs DMSO control
Description: SW-13 cells (derived from human adrenal cortical adenocarcinoma) were cultured on a culture plate until confluence in an L-15 culture medium containing 10% fetal bovine serum (FBS) in a carbon dioxide incubator.
Broken homogenates were collected according to a published procedure (hypotonic shock and scrapping method, Anal. Biochem., 116, 298–302 (1981)), subjected to protein quantitation (Bradford method), and stored at −80° C. till use.
Chol/PC vesicles (Chol/PC=3.9 mM/12.8 mM) were prepared according to a method described by Chang et al. (Chang, T. Y. et al., Anal. Biochem., 157, 323–330 (1986)). […]
With respect to the hexane phase in the glass test tube, the solvent was removed under a nitrogen gas stream. […] Using a bio-imaging analyzer (BAS-2000II, manufactured by Fuji Photo Film Co., Ltd.), the ^14C of the cholesterol ester fraction was quantified.
With respect to the hexane phase in the scintillation vial, ^3H was counted after adding a scintillation cocktail. Based on the amount of ^3H in the [^3H]-cholesteryl oleate-containing ethanol, the extraction efficiency was calculated. Based on the extraction efficiency, the amount of total cholesterol ester produced was calculated. In comparison with the control, decrease in the amount of the total cholesterol ester produced when a test substance was used was expressed as ACAT-1 enzyme inhibition (%).

## diethyl 4-(7-chloro-3-N-(4-methyl -benzylideneamin)-4(3H)-quinazolinon-2-yl)benzylphosphonate [Example 1]
  ACAT-1 enzyme inhibition (%): 75%
